In patent US20170280720A1, “ARGININE […] INHIBITORS AND USES THEREOF” (EPIZYME, INC., priority 2014, published 2017):

Target: T1, Human CARM1 (PRMT4) (Homo sapiens, UniProt Q86X55)
T1 construct: Flag-CARM1-His; made in house; host or cells: HEK 293F cells (BacMam baculovirus, pFastBacMam)
T1 sequence (Q86X55 2-585 isoform Q86X55-1): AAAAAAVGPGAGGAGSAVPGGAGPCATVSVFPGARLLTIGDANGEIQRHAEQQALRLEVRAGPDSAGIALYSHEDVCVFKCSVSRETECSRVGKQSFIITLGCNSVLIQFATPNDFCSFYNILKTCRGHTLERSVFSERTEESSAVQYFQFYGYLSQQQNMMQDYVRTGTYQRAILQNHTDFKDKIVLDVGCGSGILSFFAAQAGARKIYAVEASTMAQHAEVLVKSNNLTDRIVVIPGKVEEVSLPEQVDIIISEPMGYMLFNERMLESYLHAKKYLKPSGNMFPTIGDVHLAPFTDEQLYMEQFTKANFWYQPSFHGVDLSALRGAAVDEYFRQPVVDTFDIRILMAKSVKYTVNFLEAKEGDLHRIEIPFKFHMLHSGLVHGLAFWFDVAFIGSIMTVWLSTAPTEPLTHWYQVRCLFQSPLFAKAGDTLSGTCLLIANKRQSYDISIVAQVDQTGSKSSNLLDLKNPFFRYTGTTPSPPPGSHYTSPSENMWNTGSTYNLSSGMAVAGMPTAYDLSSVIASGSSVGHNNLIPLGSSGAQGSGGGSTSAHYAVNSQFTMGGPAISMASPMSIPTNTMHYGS
Assay: CARM1 biochemical assay (3H-SAM Flashplate, peptide substrate)
Details: read-out: CARM1_ IC50
Source text: S-adenosylmethionine (SAM), S-adenosylhomocysteine (SAH), bicine, Tween20, dimethylsulfoxide (DMSO), bovine skin gelatin (BSG), sodium butyrate and Tris(2-carboxyethyl)phosphine hydrochloride solution (TCEP) were purchased from Sigma-Aldrich at the highest level of purity possible. ^3H-SAM was purchase from American Radiolabeled Chemicals with a specific activity of 80 Ci/mmol. 384-well streptavidin Flashplates were purchased from PerkinElmer.
Peptide representative of human histone H3 residues 16-30 was synthesized with an N-terminal linker-affinity tag motif and a C-terminal amide cap by 21st Century Biochemicals. The peptide was purified by high-performance liquid chromatography (HPLC) to greater than 95% purity and confirmed by liquid chromatography mass spectrometry (LC-MS). The sequence was Biot-Ahx-[…]-amide and contained a monomethylated arginine at position 26 (SEQ ID NO.: 14).
Human CARM1 (PRMT4) (NM_199141.1) transcript clone was amplified from an HEK 293 cDNA library, incorporating a flanking 5′ sequence encoding a FLAG tag ([…]) (SEQ ID NO.: 6) fused directly to Ala 2 of CARM1 and 3′ sequence encoding a hexa His sequence ([…]) (SEQ ID NO.: 15) fused directly to Ser 608. The gene sequence encoding isoform1 containing a deletion of amino acids 539-561 was amplified subsequently and subcloned into pFastBacMam (Viva Biotech).
Recombinant baculovirus were generated according to Bac-to-Bac kit instructions (Life Technologies). […] Infections were carried out at 37° C. for 48 hours, harvested by centrifugation, and stored at −80° C. for purification.
Column was washed with 500 mM NaCl in buffer A and Flag-CARM1-His was eluted with 200 ug/ml FLAG peptide in buffer A. Pooled fractions were dialyzed in 20 mM Tris, 150 mM NaCl, 5% glycerol and 1 mM DTT, pH 7.8. The purity of recovered protein was 94.
General Procedure for CARM1 Enzyme Assays on Peptide Substrates.
The assays were all performed in a buffer consisting of 20 mM Bicine (pH=7.6), 1 mM TCEP, 0.005% BSG, and 0.002% Tween 20, prepared on the day of use. Compounds in 100% DMSO (1 ul) were spotted into a polypropylene 384-well V-bottom plates (Greiner) using a Platemate Plus outfitted with a 384-channel head (Thermo Scientific). DMSO (1 ul) was added to Columns 11, 12, 23, 24, rows A-H for the maximum signal control and 1 ul of SAH, a known product and inhibitor of CARM1, was added to columns 11, 12, 23, 24, rows I-P for the minimum signal control. A cocktail (40 ul) containing the CARM1 enzyme was added by Multidrop Combi (Thermo-Fisher). The compounds were allowed to incubate with CARM1 for 30 min at room temperature, then a cocktail (10 ul) containing ^3H-SAM and peptide was added to initiate the reaction (final volume=51 ul). The final concentrations of the components were as follows: CARM1 was 0.25 nM, ^3H-SAM was 30 nM, peptide was 250 nM, SAH in the minimum signal control wells was 1 mM, and the DMSO concentration was 2%. The assays were stopped by the addition of non-radiolabeled SAM (10 ul) to a final concentration of 300 uM, which dilutes the ^3H-SAM to a level where its incorporation into the peptide substrate is no longer detectable. 50 ul of the reaction in the 384-well polypropylene plate was then transferred to a 384-well Flashplate and the biotinylated peptides were allowed to bind to the streptavidin surface for at least 1 hour before being washed once with 0.1% Tween20 in a Biotek ELx405 plate washer. The plates were then read in a PerkinElmer TopCount plate reader to measure the quantity of ^3H-labeled peptide bound to the Flashplate surface, measured as disintegrations per minute (dpm) or alternatively, referred to as counts per minute (cpm).
Where dpm=disintegrations per minute, cmpd=signal in assay well, and min and max are the respective minimum and maximum signal controls.
Where top and bottom are the normally allowed to float, but may be fixed at 100 or 0 respectively in a 3-parameter fit. […]

Row | SMILES | IC50 [nM]
1 | CNCCN(C)Cc1cccc(-c2cc(C(=O)NC(C)c3ccccc3)c3cn(C4CCOCC4)nc3n2)c1 (stereo not shown) [Compound 312] | 311
2 | CNCCN(C)Cc1cccc(-c2cc(C(=O)N3CCC(F)C3)c3cnn(C(C)C)c3n2)c1 (stereo not shown) [Compound 313] | 312
3 | CNCCN(C)Cc1cccc(-c2cc(C(=O)NC3CCOCC3)c3cnn(CC4CC4)c3n2)c1 [Compound 314] | 334
4 | CNCCN(C)Cc1cccc(-c2cc(C(O)C3CCOCC3)c3cnn(C(C)C)c3n2)c1 (stereo not shown) [Compound 315] | 368
5 | CCOC(=O)c1cc(-c2cccc(CN(C)CCNC)c2)nc2c1cnn2CC(F)(F)F [Compound 316] | 379
6 | Cc1cc(C)c(CNC(=O)c2cc(-c3ccc(CN(C)CCN4CCCC4)cc3)nc3c2cnn3C(C)C)c(=O)[nH]1 [Compound 364] | 50000
7 | Cc1cc(C)c(CNC(=O)c2cc(-c3cccc(CNCCN(C)C)c3)nc3c2cnn3C(C)C)c(=O)[nH]1 [Compound 369] | 501
8 | Cc1cc(C)c(CNC(=O)c2cc(-c3cc(CN(C)CCN)ccc3C)cc3c2cnn3C(C)C)c(=O)[nH]1 [Compound 389] | 232

Results, then the compound that gave them:

Row | IC50 [nM] | SMILES
9 | 386 | CNCCN(C)Cc1cccc(-c2cc(C(=O)NCC3CCOCC3)c3cnn(Cc4cccnc4)c3n2)c1 [Compound 317]
10 | 398 | CNCCN(C)Cc1cccc(-c2cc(C(=O)NCC3CCOCC3)c3cnn(Cc4ccccn4)c3n2)c1 [Compound 318]
11 | 410 | CNCCN(C)Cc1cccc(-c2cc(C(=O)N(C)C3CCOCC3)c3cnn(C(C)C)c3n2)c1 [Compound 320]
12 | 453 | CNCCN(C)Cc1cccc(-c2cc(C(=O)N3CCOCC3)c3cnn(C(C)C)c3n2)c1 [Compound 321]
13 | 456 | CNCCN(C)Cc1cccc(-c2cc(C(=O)N3CCSCC3)c3cnn(C(C)C)c3n2)c1 [Compound 322]
